Source: patent publication US12606541B2, “PPARg modulators and methods of use” (Eisai R&D Management Co., Ltd., priority 2020, dated 2026)
Where two headings read alike, the source gives them in different places.

Assays:
[1] = target: T1, His6-TEV-PPARγ-(234-505) (Homo sapiens, UniProt P37231); test: TR-FRET Assay to Measure Co-R Peptide Recruitment to PPARγ; format: biochemical; details: Co-R peptide (SMRT-ID2) recruitment, top final concentration 20 μM, read-out: TR-FRET i-Ag, AC50
T1 construct: The His6-TEV-PPARγ-(234-505) protein for assay was expressed and purified; TEV cleavage site (N); made in house
T1 sequence (P37231 234-505): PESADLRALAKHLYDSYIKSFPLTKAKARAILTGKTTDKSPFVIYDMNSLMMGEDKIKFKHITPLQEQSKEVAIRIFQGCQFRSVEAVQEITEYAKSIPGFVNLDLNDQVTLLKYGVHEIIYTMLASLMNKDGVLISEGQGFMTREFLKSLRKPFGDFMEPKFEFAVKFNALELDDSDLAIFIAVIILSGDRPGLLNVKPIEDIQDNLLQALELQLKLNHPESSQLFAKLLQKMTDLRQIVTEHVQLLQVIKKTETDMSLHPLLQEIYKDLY
Procedure, shortened: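 Corepressor recruitment is measured by adding terbium-labeled anti-His antibody and FITC SMRT-ID2 peptide, at 5 and 200 nM final, after a 20-minute room-temperature protein–compound incubation. After one further hour, signal is converted to percent response between DMSO and 500 nM T0070907 wells.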

[2] = system: UM-UC-9 engineered cells; test: Cell proliferation / short-term viability assay, CellTiter-Glo 144 h; format: cell-based, human; details: read-out: CTGlo 144 h UMUC9.5, G150
Procedure, shortened: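 Viability read by CellTiter-Glo 2.0 luminescence at day 7 versus DMSO-vehicle wells and a T0 plate measured on day 0. Cells: UM-UC-9 engineered assay-ready stocks, 500 cells/well in high-glucose DMEM with 10% FBS, 37° C, 5% CO2.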

Structure (SMILES) | AC50 [1] [nM] | IC50 ([2]; Homo sapiens, UM-UC-9, 144 h) [nM] | also measured
COc1cc(-c2[nH]nc(C(=O)N3CCC(C(=O)NC4CCC(C)CC4)CC3)c2Cl)ccn1 (single isomer, unassigned) [Example 110-B] | – | – | AC50 ([1]; listed as 110b): 217 nM; IC50 ([2]; listed as 110b): 697 nM
COc1cc(-c2cc(C(=O)N3CCC(C(=O)NC4CCC(C)CC4)CC3)n[nH]2)c(F)cn1 (single isomer, unassigned) [Example 114-A] | – | – | AC50 ([1]; listed as 114a): 3470 nM; IC50 ([2]; listed as 114a): 4430 nM
COc1cc(-c2cc(C(=O)N3CCC(C(=O)NC4CCC(C)CC4)CC3)n[nH]2)c(F)cn1 (single isomer, unassigned) [Example 114-B] | – | – | AC50 ([1]; listed as 114b): 15.8 nM; IC50 ([2]; listed as 114b): 26.8 nM
COc1cc(-c2cc(C(=O)N3CCC(C(=O)NC(C)c4cccc(Cl)c4)CC3)n[nH]2)c(Cl)cn1 (single isomer, unassigned) [Example 115-A] | – | – | AC50 ([1]; listed as 115a): 717 nM; IC50 ([2]; listed as 115a): 1320 nM
COc1cc(-c2cc(C(=O)N3CCC(C(=O)NC(C)c4cccc(Cl)c4)CC3)n[nH]2)c(Cl)cn1 (single isomer, unassigned) [Example 115-B] | – | – | AC50 ([1]; listed as 115b): 59.5 nM; IC50 ([2]; listed as 115b): 263 nM
COc1cc(-c2cc(C(=O)N3CCC(C(=O)NC4CCC(C(F)(F)F)CC4)CC3)n[nH]2)c(Cl)cn1 (single isomer, unassigned) [Example 118-A] | – | – | AC50 ([1]; listed as 118a): 15.5 nM; IC50 ([2]; listed as 118a): 116 nM
COc1cc(-c2cc(C(=O)N3CCC(C(=O)NC4CCC(C(F)(F)F)CC4)CC3)n[nH]2)c(Cl)cn1 (single isomer, unassigned) [Example 118-B] | – | – | AC50 ([1]; listed as 118b): 964 nM; IC50 ([2]; listed as 118b): 2960 nM
COc1cc(-c2cc(C(=O)N3CC[C@@H](C(=O)N[C@H]4CC[C@@](O)(C(F)(F)F)CC4)CC34CC4)n[nH]2)c(F)cn1 (single isomer, unassigned) [Example 169-A] | 79 | 273 | –
COc1cc(-c2cc(C(=O)N3CC[C@H](C(=O)N[C@H]4CC[C@@](O)(C(F)(F)F)CC4)CC34CC4)n[nH]2)c(F)cn1 (single isomer, unassigned) [Example 169-B] | 2.3 | 1.4 | –
COc1cc(-c2cc(C(=O)N3[C@@H]4CC[C@H]3C[C@H](C(=O)N[C@H]3CC[C@@](O)(C(F)(F)F)CC3)C4)n[nH]2)c(F)cn1 (single isomer, unassigned) [Example 170-A] | 4.7 | 11.8 | –
COc1cc(-c2cc(C(=O)N3CC[C@H](C(=O)NCc4cccc(Cl)c4)CC34CC4)n[nH]2)c(Cl)cn1 (single isomer, unassigned) [Example 245-A] | 8.3 | 4.1 | –
COc1cc(-c2cc(C(=O)N3CC[C@@H](C(=O)NCc4cccc(Cl)c4)CC34CC4)n[nH]2)c(Cl)cn1 (single isomer, unassigned) [Example 245-B] | 109 | 415 | –
COc1cc(-c2cc(C(=O)N3CC[C@H](C(=O)NCc4cccc(Cl)c4)CC3(C)C)n[nH]2)c(Cl)cn1 (single isomer, unassigned) [Example 255-A] | 49.6 | 141 | –
COc1cc(-c2cc(C(=O)N3CC[C@@H](C(=O)NCc4cccc(Cl)c4)CC3(C)C)n[nH]2)c(Cl)cn1 (single isomer, unassigned) [Example 255-B] | 1760 | 4120 | –
COc1cc(-c2cc(C(=O)N3CC[C@H](C(=O)NCc4cccc(Cl)c4)CC34CCC4)n[nH]2)c(Cl)cn1 (single isomer, unassigned) [Example 256-A] | 92.4 | 72.6 | –
COc1cc(-c2cc(C(=O)N3CC[C@@H](C(=O)NCc4cccc(Cl)c4)CC34CCC4)n[nH]2)c(Cl)cn1 (single isomer, unassigned) [Example 256-B] | 15900 | 3520 | –
COc1cc(-c2cc(C(=O)N3[C@@H]4CC[C@H]3C[C@H](C(=O)NC3CCC(C(F)(F)F)OC3)C4)n[nH]2)c(F)cn1 (single isomer, unassigned) [Example 280-A] | 895 | 5800 | –

Structure (SMILES) | AC50 [1] [nM] | IC50 ([2]; Homo sapiens, UM-UC-9, 144 h) [nM] | also measured
COc1cc(-c2cc(C(=O)N3CC[C@@H](C(=O)N[C@H]4CC[C@@](O)(C(F)(F)F)CC4)CC34CC4)n[nH]2)c(Cl)cn1 (single isomer, unassigned) [Example 286-A] | 304 | 460 | –
COc1cc(-c2cc(C(=O)N3CC[C@H](C(=O)N[C@H]4CC[C@@](O)(C(F)(F)F)CC4)CC34CC4)n[nH]2)c(Cl)cn1 (single isomer, unassigned) [Example 286-B] | 2.2 | 1.5 | –
Cc1cc(-c2cc(C(=O)N3CC[C@H](C(=O)N[C@H]4CC[C@@](O)(C(F)(F)F)CC4)CC34CC4)n[nH]2)c(F)cn1 (single isomer, unassigned) [Example 287-A] | 2.3 | 2.4 | –
Cc1cc(-c2cc(C(=O)N3CC[C@@H](C(=O)N[C@H]4CC[C@@](O)(C(F)(F)F)CC4)CC34CC4)n[nH]2)c(F)cn1 (single isomer, unassigned) [Example 287-B] | 118 | 184 | –
COc1cc(-c2cc(C(=O)N3CC[C@H](C(=O)NCc4ccc5[nH]nc(F)c5c4)CC34CC4)n[nH]2)c(F)cn1 (single isomer, unassigned) [Example 288-A] | 4.4 | 0.9 | –
COc1cc(-c2cc(C(=O)N3CC[C@@H](C(=O)NCc4ccc5[nH]nc(F)c5c4)CC34CC4)n[nH]2)c(F)cn1 (single isomer, unassigned) [Example 288-B] | 39 | 56.8 | –
CO[C@]1(C(F)(F)F)CC[C@@H](NC(=O)[C@@H]2CCN(C(=O)c3cc(-c4cc(C)ncc4F)[nH]n3)C3(CC3)C2)CC1 (single isomer, unassigned) [Example 293-A] | 281 | 874 | –
CO[C@]1(C(F)(F)F)CC[C@H](NC(=O)[C@@H]2CCN(C(=O)c3cc(-c4cc(C)ncc4F)[nH]n3)C3(CC3)C2)CC1 (single isomer, unassigned) [Example 293-B] | 1640 | 3240 | –
CO[C@]1(C(F)(F)F)CC[C@@H](NC(=O)[C@H]2CCN(C(=O)c3cc(-c4cc(C)ncc4F)[nH]n3)C3(CC3)C2)CC1 (single isomer, unassigned) [Example 293-C] | 2.8 | 1.6 | –
CO[C@]1(C(F)(F)F)CC[C@H](NC(=O)[C@H]2CCN(C(=O)c3cc(-c4cc(C)ncc4F)[nH]n3)C3(CC3)C2)CC1 (single isomer, unassigned) [Example 293-D] | 17 | 86 | –
CCOC1(C(F)(F)F)CCC(NC(=O)[C@@H]2C[C@H]3CC[C@@H](C2)N3C(=O)c2cc(-c3cc(OC)ncc3F)[nH]n2)CC1 (single isomer, unassigned) [Example 303-B] | 29.8 | 82 | –
CCO[C@]1(C(F)(F)F)CC[C@@H](NC(=O)[C@H]2CCN(C(=O)c3cc(-c4cc(C)ncn4)[nH]n3)C3(CC3)C2)CC1 (single isomer, unassigned) [Example 308-C] | 2 | 5.9 | –
CCO[C@]1(C(F)(F)F)CC[C@H](NC(=O)[C@H]2CCN(C(=O)c3cc(-c4cc(C)ncn4)[nH]n3)C3(CC3)C2)CC1 (single isomer, unassigned) [Example 308-D] | 25.6 | 192 | –
CCO[C@]1(C(F)(F)F)CC[C@@H](NC(=O)[C@@H]2CCN(C(=O)c3cc(-c4cc(C)ncn4)[nH]n3)C3(CC3)C2)CC1 (single isomer, unassigned) [Example 308-E] | 635 | 2560 | –
CCO[C@]1(C(F)(F)F)CC[C@H](NC(=O)[C@@H]2CCN(C(=O)c3cc(-c4cc(C)ncn4)[nH]n3)C3(CC3)C2)CC1 (single isomer, unassigned) [Example 308-F] | 6360 | 192 | –
CO[C@]1(C(F)(F)F)CC[C@@H](NC(=O)[C@H]2CCN(C(=O)c3cc(-c4cc(C)ncn4)[nH]n3)C3(CC3)C2)CC1 (single isomer, unassigned) [Example 309-A] | 2.9 | 5.4 | –
CO[C@]1(C(F)(F)F)CC[C@H](NC(=O)[C@H]2CCN(C(=O)c3cc(-c4cc(C)ncn4)[nH]n3)C3(CC3)C2)CC1 (single isomer, unassigned) [Example 309-B] | 49.5 | 302 | –
